Laboratory results from the supplement of paper PMC6331611.
Converted amounts (≈) assume the structure as drawn. Structures can show the parent of a compound that is named as a salt.

How the values were obtained:
[1] = test system: Salmonella enterica serovar Typhimurium SL1344; assay: intracellular MIC (10-fold luminescence reduction); higher = less potent; conditions: RAW264.7 macrophages
[2] = test system: Salmonella enterica serovar Typhimurium SL1344
[3] = test system: RAW264.7; assay: cytotoxicity (LDH release relative to maximum lysis); higher = more toxic; conditions: 50 µM; 2 h

Row | intracellular MIC [1] [µM] | MIC ([2]; LPM pH 5.8) [µM] | MIC ([2]; MHB) [µM] | MIC ([2]; MOPS glucose minimal medium) [µM] | Compound | cytotoxicity [3] [%]
1 | > 50 | ≤ 0.78 | 25 (≈ 4.75 µg/mL) | 6.25 (≈ 1.19 µg/mL) | O=[N+]([O-])c1ccc(O)c2ncccc12 [NITROXOLINE] | 14.6
2 | 1.56 | 1.56 (≈ 0.498 µg/mL) | ≤ 0.78 | ≤ 0.78 | CCn1cc(C(=O)O)c(=O)c2cc(F)c(N3CCNCC3)cc21 [NORFLOXACIN] | 8.22
3 | > 50 | 1.17 | > 50 | > 50 | CO[C@@H]1[C@@H](OC(N)=O)[C@@H](O)[C@H](Oc2ccc3c(O)c(NC(=O)c4ccc(O)c(CC=C(C)C)c4)c(=O)oc3c2C)OC1(C)C [NOVOBIOCIN SODIUM] | 7.98
4 | 1.56 | ≤ 0.78 | ≤ 0.78 | ≤ 0.78 | CC1COc2c(N3CCN(C)CC3)c(F)cc3c(=O)c(C(=O)O)cn1c23 (stereo not given) [OFLOXACIN] | 6.6
5 | ≤ 0.78 | 3.13 (≈ 1.24 µg/mL) | 3.13 (≈ 1.24 µg/mL) | ≤ 0.78 | C[C@@H]1CN(c2c(F)c(F)c3c(=O)c(C(=O)O)cn(C4CC4)c3c2F)C[C@H](C)N1 [ORBIFLOXACIN] | 15.3
6 | 1.56 | > 50 | > 50 | > 50 | COc1ccc(C(=O)c2ccccc2)c(O)c1 [OXYBENZONE] | 6.44
7 | 6.25 | ≤ 0.78 | 6.25 (≈ 2.88 µg/mL) | 12.5 (≈ 5.76 µg/mL) | CN(C)[C@@H]1C(O)=C(C(N)=O)C(=O)[C@@]2(O)C(O)=C3C(=O)c4c(O)cccc4[C@@](C)(O)[C@H]3[C@H](O)[C@@H]12 [OXYTETRACYCLINE] | 15.7
8 | ≤ 0.78 | ≤ 0.78 | ≤ 0.78 | ≤ 0.78 | C[C@H]1COc2c(C3(N)CC3)c(F)cc3c(=O)c(C(=O)O)cn1c23 [PAZUFLOXACIN MESYLATE] | 12.2
9 | 1.56 | ≤ 0.78 | ≤ 0.78 | ≤ 0.78 | CCn1cc(C(=O)O)c(=O)c2cc(F)c(N3CCN(C)CC3)cc21 [PEFLOXACINE MESYLATE] | 20.7
10 | 1.56 | ≤ 0.78 | > 50 | > 50 | O=C(O)CN(CCN(CC(=O)O)CC(=O)O)CCN(CC(=O)O)CC(=O)O [PENTETIC ACID] | 7.12
11 | ≤ 0.78 | > 50 | > 50 | > 50 | CNC[C@H](O)c1cccc(O)c1 [PHENYLEPHRINE HYDROCHLORIDE] | 6.89
12 | ≤ 0.78 | > 50 | > 50 | > 50 | CC[C@@H]1C(=O)OC[C@@H]1Cc1cncn1C [PILOCARPINE NITRATE] | 7.24
13 | 1.56 | > 50 | > 50 | > 50 | CC(C)NCC(O)COc1cccc2[nH]ccc12 (stereo not given) [PINDOLOL] | 7.73
14 | 3.13 | 3.13 | 12.5 | 6.25 | CCN1CCN(C(=O)N[C@@H](C(=O)N[C@@H]2C(=O)N3[C@@H]2SC(C)(C)[C@@H]3C(=O)O)c2ccccc2)C(=O)C1=O [PIPERACILLIN SODIUM] | 7.66
15 | ≤ 0.78 | ≤ 0.78 | ≤ 0.78 | ≤ 0.78 | Cc1cc(CC(C)CC(C)(C)C)n(O)c(=O)c1 (stereo not given) [PIROCTONE OLAMINE] | 20.8
16 | ≤ 0.78 | ≤ 0.78 | ≤ 0.78 | ≤ 0.78 | Cc1oc(=O)oc1CN1CCN(c2cc3c(cc2F)c(=O)c(C(=O)O)c2n3C(C)S2)CC1 (stereo not given) [PRULIFLOXACIN] | 13.2
17 | ≤ 0.78 | 3.13 (≈ 2.58 µg/mL) | 50 (≈ 41.1 µg/mL) | 25 (≈ 20.6 µg/mL) | CO[C@H]1/C=C/O[C@@]2(C)Oc3c(C)c(O)c4c(O)c(c(/C=N/N5CCN(C)CC5)c(O)c4c3C2=O)NC(=O)/C(C)=C\C=C\[C@H](C)[C@H](O)[C@@H](C)[C@@H](O)[C@@H](C)[C@H](OC(C)=O)[C@@H]1C [RIFAMPIN] | 8.58
18 | 12.5 | 6.25 (≈ 4.91 µg/mL) | 12.5 (≈ 9.82 µg/mL) | 25 (≈ 19.6 µg/mL) | CO[C@H]1/C=C/O[C@@]2(C)Oc3c(C)c(O)c4c(O)c(c5c(nc6cc(C)ccn65)c4c3C2=O)NC(=O)/C(C)=C\C=C\[C@H](C)[C@H](O)[C@@H](C)[C@@H](O)[C@@H](C)[C@H](OC(C)=O)[C@@H]1C [RIFAXIMIN] | 6.48
19 | ≤ 0.78 | 6.25 | 1.56 | ≤ 0.78 | CN1CCN(c2c(F)cc3c(=O)c(C(=O)O)cn4c3c2SCC4)CC1 [RUFLOXACIN HYDROCHLORIDE] | 13.3
20 | 25 | > 50 | > 50 | > 50 | C[n+]1cc2c3c(ccc2c2ccc4cc5c(cc4c21)OCO5)OCO3 [SANGUINARINE SULFATE] | 34.2
21 | ≤ 0.78 | ≤ 0.78 | ≤ 0.78 | ≤ 0.78 | O=C(O)c1cn(-c2ccc(F)cc2)c2cc(N3CCNCC3)c(F)cc2c1=O [SARAFLOXACIN HYDROCHLORIDE] | 21.5
22 | > 50 | > 50 | > 50 | > 50 | CN[C@H]1CC[C@@H](c2ccc(Cl)c(Cl)c2)c2ccccc21 [SERTRALINE HYDROCHLORIDE] | 22.7
23 | ≤ 0.78 | ≤ 0.78 | ≤ 0.78 | ≤ 0.78 | C[C@@H]1CN(c2c(F)c(N)c3c(=O)c(C(=O)O)cn(C4CC4)c3c2F)C[C@H](C)N1 [SPARFLOXACIN] | 16.6
24 | ≤ 0.78 | > 50 | ≤ 0.78 | 6.25 (≈ 2.49 µg/mL) | OC[C@H]1O[C@H](O[C@]2(CCl)O[C@H](CCl)[C@@H](O)[C@@H]2O)[C@H](O)[C@@H](O)[C@H]1Cl [SUCRALOSE] | 15
25 | 1.56 | 50 (≈ 16.9 µg/mL) | > 50 | > 50 | CCCCCCCCNC(C)C(O)c1ccc(SC(C)C)cc1 (stereo not given) [SULOCTIDIL] | 33.3
26 | ≤ 0.78 | > 50 | 12.5 (≈ 10.2 µg/mL) | 12.5 (≈ 10.2 µg/mL) | CC[C@H]1OC(=O)[C@H](C)C(=O)[C@H](C)[C@@H](O[C@@H]2O[C@H](C)C[C@H](N(C)C)[C@H]2O)[C@](C)(OC)C[C@@H](C)C(=O)[C@H](C)[C@H]2N(CCCCn3cnc(-c4cccnc4)c3)C(=O)O[C@]12C [TELITHROMYCIN] | 20.8
27 | 1.56 | ≤ 0.78 | 12.5 | 3.13 | CN(C)[C@@H]1C(O)=C(C(N)=O)C(=O)[C@@]2(O)C(O)=C3C(=O)c4c(O)cccc4[C@@](C)(O)[C@H]3C[C@@H]12 [TETRACYCLINE HYDROCHLORIDE] | 7.01
28 | ≤ 0.78 | 3.13 (≈ 0.909 µg/mL) | ≤ 0.78 | ≤ 0.78 | COc1cc(Cc2cnc(N)nc2N)cc(OC)c1OC [TRIMETHOPRIM] | 19.9
29 | ≤ 0.78 | 1.56 | > 50 | > 50 | O=C(O)CN(CCN(CC(=O)O)CC(=O)O)CC(=O)O.[Na+].[Na+].[Na+] [TRISODIUM ETHYLENEDIAMINE TETRACETATE] | 8.27
30 | > 50 | > 50 | > 50 | > 50 | CCCCC(=O)N(Cc1ccc(-c2ccccc2-c2nnn[nH]2)cc1)[C@H](C(=O)O)C(C)C [VALSARTAN] | 6.04

Row | Compound | intracellular MIC [1] [µM] | MIC ([2]; LPM pH 5.8) [µM] | MIC ([2]; MHB) [µM] | MIC ([2]; MOPS glucose minimal medium) [µM] | cytotoxicity [3] [%]
31 | CCn1cc(C(=O)O)c(=O)c2cc3c(cc21)OCO3 [OXOLINIC ACID] | 1.56 | 1.56 (≈ 0.408 µg/mL) | 3.13 (≈ 0.818 µg/mL) | ≤ 0.78 | 6.86
32 | CC(=O)[O][Hg][c]1ccccc1 [PHENYLMERCURIC ACETATE] | ≤ 0.78 | ≤ 0.78 | ≤ 0.78 | ≤ 0.78 | 22.2
33 | CNC(=O)Oc1ccc2c(c1)[C@]1(C)CCN(C)[C@@H]1N2C [PHYSOSTIGMINE SALICYLATE] | ≤ 0.78 | 12.5 (≈ 3.44 µg/mL) | > 50 | > 50 | 7.34
34 | CN(C)C(=O)Oc1ccc[n+](C)c1 [PYRIDOSTIGMINE BROMIDE] | > 50 | > 50 | > 50 | > 50 | 6.09
35 | [O-][n+]1ccccc1[S-].[O-][n+]1ccccc1[S-].[Zn+2] [PYRITHIONE ZINC] | 3.13 | ≤ 0.78 | 3.13 | 3.13 | 84.4
36 | O=C(CCCN1CCC2(CC1)C(=O)NCN2c1ccccc1)c1ccc(F)cc1 [SPIPERONE] | > 50 | > 50 | > 50 | > 50 | 20.9
37 | C[CH2][Hg][S]c1ccccc1C(=O)[O-].[Na+] [THIMEROSAL] | ≤ 0.78 | ≤ 0.78 | ≤ 0.78 | ≤ 0.78 | 76.7
38 | Oc1cc(Cl)ccc1Oc1ccc(Cl)cc1Cl [TRICLOSAN] | 1.56 | ≤ 0.78 | ≤ 0.78 | ≤ 0.78 | 23.5
